Here are results for 17 molecules from ChEMBL document CHEMBL3351364 (J Med Chem, 2014).

A short description of series [1]: Oral bioavailability in Sprague-Dawley rat at 1 mg/kg. Type of series: ADME, organism-based. The note with it: in vivo.
Series [2] can be described thus: Cmax in Sprague-Dawley rat at 3 mg/kg, po. Type of series: ADME, organism-based. Also on record: dose 3 mg/kg, route oral. To be noted: in vivo.
The nature of series [3]: Cmax in beagle dog at 2.5 mg/kg, po. The series is classed as ADME, organism-based, Canis lupus familiaris. Also on record: dose 2.5 mg/kg, route oral. To be noted: in vivo.
Series [4] deals with Hepatitis C virus. Briefly: Antiviral activity against HCV genotype 1b infected in human Huh7 cells after 3 days by cell-based replicon assay. The series is classed as functional, Hepacivirus hominis. To be noted: Huh-7, 72 h. On the technique in general: In antiviral work, replicon cells carry a viral genome segment that copies itself.
Series [5] can be described thus: Half life in beagle dog at 2.5 mg/kg, po. The series is classed as ADME, organism-based, Canis lupus familiaris. Also on record: dose 2.5 mg/kg, route oral. The note with it: in vivo.
A short description of series [6]: Oral bioavailability in monkey at 2.5 mg/kg. The series is classed as ADME, organism-based, Macaca mulatta. To be noted: rhesus monkey, in vivo.
Series [7] is described as follows: Half life in monkey at 2.5 mg/kg, po. The series is classed as ADME, organism-based, Macaca mulatta. Also on record: dose 2.5 mg/kg, route oral. To be noted: rhesus monkey, in vivo.
Series [8] can be described thus: Oral bioavailability in beagle dog at 2.5 mg/kg. Type of series: ADME, organism-based, Canis lupus familiaris. To be noted: in vivo.
Series [9] can be described thus: Cmax in monkey at 2.5 mg/kg, po. The series is classed as ADME, organism-based, Macaca mulatta. Also on record: dose 2.5 mg/kg, route oral. To be noted: rhesus monkey, in vivo.
A short description of series [10]: Half life in Sprague-Dawley rat at 3 mg/kg, po. The note with it: in vivo. Also on record: dose 3 mg/kg, route oral. Type of series: ADME, organism-based.
In series [11] the test system is Hepatitis C virus. Nature of the series: Antiviral activity against HCV genotype 1b infected in human Huh7 cells after 3 days by cell-based replicon assay in presence of 40% normal human serum. Type of series: functional, Hepacivirus hominis. The note with it: Huh-7, 72 h.
For series [12], the system named is Hepatitis C virus. Briefly: Antiviral activity against HCV genotype 1b infected in human Huh7 cells after 3 days by cell-based replicon assay in presence of 10% fetal bovine serum. Type of series: functional, Hepacivirus hominis. To be noted: Huh-7, 72 h.
Series [13] in a line: Cytotoxicity against human HuH7 cells. Type of series: cell-based, Huh-7.
Series [14] in a line: Half life in Sprague-Dawley rat at 5 mg/kg, iv as 30 mins infusion. The series is classed as ADME, organism-based. Also on record: dose 5 mg/kg, route intravenous. To be noted: in vivo.
Series [15] can be described thus: Half life in beagle dog at 1 mg/kg, iv as 30 mins infusion. Also on record: dose 1 mg/kg, route intravenous. The series is classed as ADME, organism-based, Canis lupus familiaris. The note with it: in vivo.
Series [16] in a line: Oral bioavailability in Sprague-Dawley rat at 30 mg/kg. The series is classed as ADME, organism-based. To be noted: in vivo.
Series [17] in a line: Half life in monkey at 1 mg/kg, iv as 30 mins infusion. The series is classed as ADME, organism-based, Macaca mulatta. Also on record: dose 1 mg/kg, route intravenous. The note with it: rhesus monkey, in vivo.
Series [18] in a line: Oral bioavailability in beagle dog at 2 mg/kg. Type of series: ADME, organism-based, Canis lupus familiaris. To be noted: in vivo.
The nature of series [19]: Lipophilicity, log P of the compound. The note with it: octanol/water. Type of series: physicochemical.
Series [20] in a line: Half life in Sprague-Dawley rat at 1 mg/kg, iv as 30 mins infusion. Type of series: ADME, organism-based. Also on record: dose 1 mg/kg, route intravenous. To be noted: in vivo.
A short description of series [21]: Oral bioavailability in beagle dog at 1 mg/kg. The series is classed as ADME, organism-based, Canis lupus familiaris. To be noted: in vivo.
Series [22] is described as follows: Cmax in monkey at 5 mg/kg, po. The series is classed as ADME, organism-based, Macaca mulatta. Also on record: dose 5 mg/kg, route oral. To be noted: rhesus monkey, in vivo.
The nature of series [23]: Oral bioavailability in Sprague-Dawley rat at 2 mg/kg. The series is classed as ADME, organism-based. The note with it: in vivo.
Series [24] is described as follows: Oral bioavailability in monkey at 5 mg/kg. The series is classed as ADME, organism-based, Macaca mulatta. To be noted: rhesus monkey, in vivo.
Series [25] in a line: Cmax in monkey at 3 mg/kg, po. The note with it: rhesus monkey, in vivo. Type of series: ADME, organism-based, Macaca mulatta. Also on record: dose 3 mg/kg, route oral.
The nature of series [26]: Oral bioavailability in beagle dog at 2.3 mg/kg. The note with it: in vivo. Type of series: ADME, organism-based, Canis lupus familiaris.
Series [27] is described as follows: Oral bioavailability in Sprague-Dawley rat at 5 mg/kg. The series is classed as ADME, organism-based. To be noted: in vivo.
Series [28] can be described thus: Half life in monkey at 3 mg/kg, po. Type of series: ADME, organism-based, Macaca mulatta. Also on record: dose 3 mg/kg, route oral. The note with it: rhesus monkey, in vivo.

As to `COC(=O)N[C@@H](C(=O)N1CCC[C@H]1C(=O)Nc1ccc([C@H]2CC[C@@H](c3ccc(NC(=O)[C@@H]4CCCN4C(=O)[C@H](NC(=O)OC)C(C)C)cc3)N2c2ccc(C(C)(C)C)cc2)cc1)C(C)C`, the bioavailability was 6.2% in series [1], 35% in [6] and 57% in [8]. Moreover, the Cmax – broadly, the maximum level reached in the sampled fluid or tissue – in [2] was 3360 nM; in series [3] it was 720 nM; in series [9] it was 320 nM. For the same molecule, in the series on Hepatitis C virus [4], a half-maximal effect (EC50) was put at 0.005 nM. Besides, the figures for the half-life in series [5], in series [7] and in [10] were 7.3 h, 5 h and 15.9 h, respectively.

For `COC(=O)N[C@H](C(=O)N1CCC[C@H]1c1ncc(-c2ccc(-c3csc4c(-c5ccc6[nH]c([C@@H]7CCCN7C(=O)[C@H](NC(=O)OC)c7ccccc7)nc6c5)csc34)cc2)[nH]1)C(C)C`, the EC50 (commonly the concentration needed to bring the measured effect to its halfway point) in the series with Hepatitis C virus [4] is 0.003 nM.

For the molecule `CN(C)[C@@H](C(=O)N1CCC[C@H]1c1nc2cc(-c3cnc(-c4ccc5[nH]c([C@@H]6CCCN6C(=O)[C@@H](c6ccccc6)N(C)C)nc5c4)o3)ccc2[nH]1)c1ccccc1`, the EC50 with Hepatitis C virus [4] is < 4.6 nM.

As to `COC(=O)N[C@H](C(=O)N1CCC[C@@H]1c1ncc(-c2ccc(C#CC#Cc3cnc([C@H]4CCCN4C(=O)[C@H](NC(=O)OC)C(C)C)[nH]3)cc2)[nH]1)C(C)C`, the results for the EC50 in the series with Hepatitis C virus [11] and in the series with Hepatitis C virus [12] were 0.737 nM and 0.409 nM, respectively. Besides, in series [13], the CC50 (commonly the concentration at which the toxic effect on the cells reaches its halfway point) is 30300 nM.

Take `COC(=O)N[C@@H](C(=O)N1CCC[C@H]1c1ncc(-c2ccc3c(c2)O[C@@H](c2ccccc2)n2c-3cc3cc(-c4cnc([C@@H]5CCCN5C(=O)[C@H](NC(=O)OC)C(C)C)[nH]4)ccc32)[nH]1)C(C)C`: the half-life (in general, how long it takes for the measured level to halve) in series [14] was 4.2 h; in series [15], 4.7 h; in series [17], 16 h. Besides, the bioavailability in series [16] stood at 9%; in series [18] it was 35%. In the series on Hepatitis C virus [4], this molecule yielded an EC50 of 0.003 nM. The logP (usually a log measure of how a compound divides between an organic and an aqueous phase) in [19] amounted to 8.61.

For the molecule `COC(=O)N[C@@H](C(=O)N1CCC[C@H]1c1ncc(-c2ccc(C#CC#Cc3ccc(-c4cnc([C@@H]5CCCN5C(=O)[C@H](NC(=O)OC)C(C)C)[nH]4)cc3)cc2)[nH]1)C(C)C`, in the series with Hepatitis C virus [4], the concentration for a half-maximal effect (EC50) turned out to be 0.384 nM.

Regarding `COC(=O)N[C@@H](C(=O)N1CCCC1c1ncc(C#CC#Cc2ccc(-c3cnc(C4CCCN4C(=O)[C@H](NC(=O)OC)C(C)C)[nH]3)cc2)[nH]1)C(C)C` (single isomer, unassigned; 13k), the EC50 in the series with Hepatitis C virus [11] amounted to 7440 nM; with Hepatitis C virus [12] it was 994 nM. This molecule returned a CC50 in [13] of 108000 nM.

`COC(=O)N[C@@H](C(=O)N1CCC[C@H]1c1ncc(C#CC#Cc2cnc([C@@H]3CCCN3C(=O)[C@H](NC(=O)OC)C(C)C)[nH]2)[nH]1)C(C)C` had an EC50 in the series with Hepatitis C virus [4] of 1.33 nM.

Turning to `COC(=O)N[C@@H](C(=O)N1CCC[C@H]1c1nc2ccc(C#CC#Cc3ccc4nc([C@@H]5CCCN5C(=O)[C@H](NC(=O)OC)C(C)C)[nH]c4c3)cc2[nH]1)C(C)C`, the EC50 in the series on Hepatitis C virus [4] came out at 0.009 nM.

Take `COC(=O)N[C@H](C(=O)N1CCC[C@@H]1c1ncc(C#CC#Cc2ccc(-c3cnc([C@H]4CCCN4C(=O)[C@H](NC(=O)OC)C(C)C)[nH]3)cc2)[nH]1)C(C)C` (single isomer, unassigned): the EC50 with Hepatitis C virus [11] amounted to 0.243 nM; in the series on Hepatitis C virus [12], 0.079 nM. Moreover, the CC50 in series [13] amounted to 24700 nM.

In the case of `c1cc2oc(-c3ccc(-c4ncc([C@@H]5CCCN5)[nH]4)cc3)cc2cc1-c1cnc([C@@H]2CCCN2)[nH]1`, the half-life in series [20] is 2 h; in series [15] it was 7.7 h; in series [17], 3 h. For the same molecule, the bioavailability in [21] was 108%; in series [23], 38%; in series [24], 12%. Moreover, the Cmax in series [22] stood at 180 nM.

For the molecule `COC(=O)N[C@H](C(=O)N1CCCC1c1ncc(C#CC#Cc2ccc(-c3cnc(C4CCCN4C(=O)[C@@H](NC(=O)OC)C(C)C)[nH]3)cc2)[nH]1)C(C)C` (single isomer, unassigned; 13j), the EC50 amounted to 6900 nM with Hepatitis C virus [11] and 8880 nM in the series with Hepatitis C virus [12]. In [13], this molecule gave a CC50 of 59700 nM.

`COC(=O)N[C@@H](C(=O)N1CCCC1c1ncc(C#CC#Cc2ccc(-c3cnc(C4CCCN4C(=O)[C@H](NC(=O)OC)C(C)C)[nH]3)cc2)[nH]1)C(C)C` (single isomer, unassigned; 13b): the EC50 came out at 137 nM with Hepatitis C virus [11] and 47 nM with Hepatitis C virus [12]. This molecule came in with a CC50 in series [13] of 298000 nM.

For `COC(=O)N[C@H](C(=O)N1CCCC1c1ncc(C#CC#Cc2ccc(-c3cnc(C4CCCN4C(=O)[C@@H](NC(=O)OC)C(C)C)[nH]3)cc2)[nH]1)C(C)C` (single isomer, unassigned; 13i), the EC50 with Hepatitis C virus [11] came out at 36.1 nM; in the series on Hepatitis C virus [12], 5.37 nM. In [13], this molecule registered a CC50 of 34700 nM.

For the molecule `COC(=O)N[C@H](C(=O)N1CCC[C@H]1c1ncc(-c2ccc(-c3ccc(-c4cnc([C@@H]5CCCN5C(=O)[C@@H](NC(=O)OC)C(C)C)[nH]4)cc3)cc2)[nH]1)C(C)C`, the Cmax in series [25] is 500 nM; in [2] it was 728 nM. The EC50 in the series with Hepatitis C virus [4] is 0.003 nM. In addition, the bioavailability in series [26] came out at 58.5%; in series [27], 50%. The logP in [19] worked out at 6.33. In addition, the half-life in series [28] was 3 h; in series [10], 1.5 h.

In the series with Hepatitis C virus [4], `COC(=O)N[C@@H](C(=O)N1CCC[C@H]1c1nc2ccc(C#Cc3ccc4nc([C@@H]5CCCN5C(=O)[C@H](NC(=O)OC)C(C)C)[nH]c4c3)cc2[nH]1)C(C)C` registered an EC50 of 0.055 nM.

Take `COC(=O)N[C@H](C(=O)N1CCC[C@H]1c1ncc(-c2ccc(-c3ccc(-c4cnc([C@@H]5CC6(CN5C(=O)[C@@H](NC(=O)OC)C(C)C)OCCO6)[nH]4)cc3)cc2)[nH]1)C(C)C`: the response with Hepatitis C virus [4] was half-maximal at 0.0074 nM (EC50).
